“And” between values parts separate entries of the source, which are not always exact repeats. Equal values may be shown once.
Columns and labels:
[1] = system: rat myocardial ischemia models induced by coronary artery ligation; test: Myocardial infarction area of rats after coronary artery ligation (N-BT staining); assay type: in vivo, Sprague-Dawley male rats; conditions: 5 hours after coronary artery ligation, x ± SD
From the text: Sprague-Dawley male rats of clean grade weighting 200-220 g were supplied by the animal experimental center of the Second Military Medical University (license number: SCXK (Shanghai)-2007-0003). • 2.1.2 Experimental groups
Experimental rats were randomly divided into four groups: sham group: n=8, model group: n=9, MLIF low-dose group: n=11, MLIF high-dose group: n=12. The dose of medicine could be administrated according to rat body weight. MLIF low-dose group and MLIF high-dose group were administrated by tail intravenous injection prepared with normal saline as solvent at the dose of 0.15 mg/kg and 0.5 mg/kg, respectively. • 2.1.3 Coronary artery ligation and measurement of myocardial infarction area of rats
The Sprague-Dawley male rats were abdomen anesthetized with 25% urethane (0.4 ml/100 g) and fixated at supine position. The chest was cut open among the fifth rib at left, and then the fourth and fifth ribs were cut off along the left side of sterna at 2 mm. The pericardium was snipped off with heart exposed, and a 0/3 suture line was passed through the left anterior descending coronary artery. The rats were administrated by tail intravenous injection slowly. After 10 minutes, the left anterior descending coronary artery was ligated rapidly and the heart was returned to its chest, removing the air within the thorax by hand, closing the thorax and tightening the purse-string suture rapidly. The entire process of opening and closing chest was performed within 30 seconds. The coronary arteries of rats of sham group were not ligated since the myocardial ischemia would be caused by coronary artery ligation.
The rats were administrated by tail intravenous injection with the dose of 0.15 mg/kg (MLIF low-dose group) and 0.5 mg/kg (MLIF high-dose group) at 15 minutes after coronary artery ligation with the same volume of normal saline administrated in sham group and model group. Each group of animals was executed at 5 hours after coronary artery ligation. The heart was taken out and the heart ventricle muscle was transversely chipped into 5 slices, the cut position of which was parallel to coronary sulcus under the coronary artery ligation line. The five slices of the heart ventricle muscle were stained with Nitroblue tetrazolium (N-BT) for 15 minutes with shaking. The normal heart ventricle muscle was dyed into dark blue while that of the area of myocardial infarction was unstained with normally light yellow. The area of myocardial infarction was isolated by a dissecting microscope and the whole heart weight, the left ventricle weight and the area of myocardial infarction weight were weighed, respectively, the percent (%) of area of myocardial infarction weight to whole heart weight were quantified as an measure on myocardial infarction area ranges. • 2.1.4 Data and statistics analysis
(§1) All experimental data are given as x±SD. Differences between the groups were calculated by analysis of variance (SPSS 10.0).

[2] = system: acute myocardial ischemia rats (coronary artery ligation); test: Serum creatine kinase (CK) and lactic dehydrogenase (LDH) of acute myocardial ischemia rats; assay type: in vivo, Sprague-Dawley male rats; conditions: blood at 5 hours after coronary artery ligation, x ± SD; for LDH activity in blood serum: P < 0.01 vs model group; for CK activity in blood serum: P < 0.05 vs model group
From the text: Sprague-Dawley male rats of clean grade weighting 200-220 g were supplied by the animal experimental center of the Second Military Medical University (license number: SCXK (Shanghai)-2007-0003). • 2.2.2 Experimental groups
Experimental rats were randomly divided into four groups: sham group: n=7, model group: n=8, MLIF low-dose group: n=8, MLIF high-dose group: n=9. The dose of medicine could be administrated according to rat body weight. MLIF low-dose group and MLIF high-dose group were administrated by tail intravenous injection prepared with normal saline as solvent at the dose of 0.15 mg/kg and 0.5 mg/kg, respectively. • 2.2.3 Coronary artery ligation and determination of CK and LDH in blood serum
Coronary artery ligations of rats were carried out as described previously. 3m1 blood sample of each animal was taken from femoral artery at 5 hours after coronary artery ligation and the blood serum was collected according to the method of convengtional centrifugalization. The creatine kinase (CK) and lactic dehydrogenase (LDH) activities in blood serum were measured by semi-automatic biochemical analyzer. • 2.2.4 Data and statistics analysis
as §1

[3] = MLIF high-dose group 0.5 mg/kg tail i.v.
[4] = MLIF high-dose group 0.5 mg/kg tail i.v., P < 0.01 vs model group
[5] = MLIF low-dose group 0.15 mg/kg tail i.v.
[6] = MLIF low-dose group 0.15 mg/kg tail i.v., P < 0.05 vs model group

Met-Gln-Cys-Asn-Ser (MQCNS) [MLIF]
area of myocardial infarction weight [1, 3]: 158 ± 22.4^ΔΔ mg | area of myocardial infarction/ left ventricle [1, 4]: 30±3.7% and 30 ± 3.7^ΔΔ, ** % | area of myocardial infarction/ whole heart [1, 4]: 20±2.7% and 20 ± 2.7^ΔΔ, ** % | area of myocardial infarction weight [1, 5]: 187 ± 22.8^ΔΔ mg | area of myocardial infarction/ left ventricle [1, 6]: 33±3.2% and 33 ± 3.2^ΔΔ, * % | area of myocardial infarction/ whole heart [1, 6]: 22±1.9% and 22 ± 1.9^ΔΔ, * % | LDH activity in blood serum [2, 3]: 3642±817 IU/L and 3642 ± 817^ΔΔ, ** IU/L | CK activity in blood serum [2, 3]: 5244±1787.8 IU/L and 5244 ± 1787.8^ΔΔ, * IU/L | LDH activity in blood serum [2, 5]: 3156±864.1 IU/L and 3156 ± 864.1^ΔΔ, ** IU/L | CK activity in blood serum [2, 5]: 5258±2114.3 IU/L and 5258 ± 2114.3^ΔΔ, * IU/L
